Experiments:
[1] = system: mouse; test: Determination of LD50 in the mouse by intravenous administration; assay type: in vivo; conditions: male and female mice, strain Crl:CD1(ICR)BR
Text: Determination of LD50 in the Mouse by Intravenous Administration of the Compounds of the Present Invention
In table II are reported, as non-limiting examples, the LD50 values for compounds A and B of the present invention, in comparison with GdCl3 and with Gd/DTPA neutralized with N-methylglucamine.
*male and female mice were used, Strain: Crl:CD1(ICR)BR

[2] = Determination of relaxivity (MINISPEC PC 120 BRUKER, 20 MHz proton, 39° C.); assay type: physicochemical; conditions: pH 7.3, aqueous solvent, 0-5 mM; for Transverse relaxivity (R2): Carr, Purcell, Meiboom and Gill sequence; for Longitudinal relaxivity (R1): Inversion Recovery
Method: Determination of the Relaxivity of the Compounds of the Present Invention
A) Apparatus: […] PC 120 (BRUKER)
B) Observation frequency:
39° C., with pre-thermostatization
of the NMR test tube for 10 min
at the operative temperature
in the range from 0 to 5 mM with the
following specific measuring points:
F) pH: 7.3, to be checked again
potentiometrically before the
relaxation measurement.
Longitudinal relaxivity (R1) measurements were calculated using the "Inversion Recovery" sequence with an 8 point minimum and a 3 parameter fit, according to the program provided for the […] 120 BRUKER instrument, by which measurements were taken.
Transverse relaxivity (R2) measurements were calculated using the sequence of Carr, Purcell, Meiboom and Gill, according to the program provided for the […] 120 BRUKER instrument, by means of which measurements were taken, adjusting the apparatus in such a way as to observe the decay of the signal to about 1/3 of the starting value, with a score number higher or equal to 10 and a 2 parameter fit.

[3] = background statement in words; cited from earlier work

Compound	LD50 in the mouse [1]	Transverse relaxivity (R2) [2] [mM/s]	Longitudinal relaxivity (R1) [2] [mM/s]	removal from the blood stream and from the lesions of the tissues under examination [3]
[Cl][Gd]([Cl])[Cl] [GdCl3, reference compound]	0.28 (0.24-0.32) mmol/kg	–	–	–
D(-)-N-methylglucamine salt of Gd^(3+) /2-[1,4,7,10-tetraaza-4,7,10-tri(carboxymethyl)-cyclododecane-1-yl]-3-hydroxypropionic acid complex	13.1 (12.2-14.1) mmol/kg	5.06 ± 0.01	3.72 ± 0.01	–
CNC[C@H](O)[C@@H](O)[C@H](O)[C@H](O)CO.CNC[C@H](O)[C@@H](O)[C@H](O)[C@H](O)CO.O=C([O-])CN(CCN(CC(=O)[O-])CC(=O)O)CCN(CC(=O)[O-])CC(=O)O.[Gd+3] [Gd/DTPA, reference compound]	4.8 (4.47-5.16) mmol/kg	5.15 ± 0.02	4.08 ± 0.01	too quickly removed from the blood stream and from the lesions of the tissues under examination
D(-)-N-methylglucamine salt of the Gd^(3+) /2-[1,4,7,10-tetraaza-4,7,10-tri(carboxymethyl)-cyclododecane-1-yl]-3-benzyloxypropionic acid complex	8.8 (7.79-9.94) mmol/kg	5.67 ± 0.02	4.15 ± 0.01	–
